Ends that are not written are not given here.
Tests used:
[1] = DPPH assay of antioxidant activity in combination with preservatives, initial and after 3 months storage; assay type: biochemical; details: 0.5% (w/w) Sodium Benzoate alone
Protocol: (§1) Twelve different batches of purified hydrolysate obtained as described from Examples 1 to 3 are analyzed to determine the dry weight, protein content and antioxidant activity. • Dry weight is determined by weight difference after drying at 110° C. • Protein content is determined by using a BCA Assay kit. • Antioxidant activity is determined by DPPH (2,2-Diphenyl-1-Picrylhydrazyl) assay. • Briefly, 50 μL of 100 µM DPPH in EtOH is mixed with 50 μL of purified hydrolysate and incubated in the dark at 37° C. for 20 min and absorbance measured at 517 nm.
The inhibition percentage is calculated from the following formula: […]
Suitable preservative [1% (w/w) Dermosoft™ 700B (INCI: Levulinic Acid (and) Sodium Levulinate (and) Glycerin (and) Aqua), 4% (w/w) Leucidal™ SF Max from Active Micro Technologies (AMT) (INCI: Lactobacillus Ferment) or 4% (w/w) Leucidal™ Liquid (INCI: Leuconostoc/Radish Root Ferment Filtrate)] is added onto deionized water under continuous stirring. Purified hydrolysate according to Example 3 is added on top of this solution to obtain a concentration of 44-88% (v/v), depending on sample dry weight. […] Samples are maintained for 3 months at 40° C. or at room temperature and antioxidant activity determined by DPPH assay.

[2] = DPPH inhibition by synthesized peptides identified in the hydrolysate; assay type: biochemical; details: for DPPH inhibition (%): synthesized peptide, test concentration not given; for Ability to inhibit DPPH / antioxidant potential (in words): synthesized peptides, F′2 subfraction
Protocol: as §1
The purified extract according to Example 3 is further fractionated by using semi-preparative high-performance liquid chromatography (HPLC) and antioxidant activity assayed by DPPH for identifying the active fraction or peptides.
Collected tubes are analyzed by analytical HPLC at 3.0 mg/ml using a Cortecs C18+column (4.6×50 mm; 2.7 μm; Waters®) at a flow of 1.6 ml/min using the following gradient composition: isocratic of 0% B in 2 min, 0 to 30% of B in 5 min, and 30 to 75% of B in 5 min, monitoring absorbance of eluting peaks at 220 nm. Different fractions are obtained from the purified hydrolysate and lyophilized for further analysis and separation. Fractions are reconstituted in water and their antioxidant activity is determined by measuring the percentage of DPPH inhibition using the methodology described above.
To identify peptide sequences, the Proteome Discoverer 1.4.0.288 program (Thermo) with MASCOT 2.5 is used. The identified peptides are individually synthesized by applying standard solid phase peptide synthesis, using Fmoc/tBu chemistry protocols. As starting resin, CTC-PS or HO-Trt-Chem Matrix® resin is used. In the latter case, initial resin chlorination took place by overnight reaction with […] in dry THF. The first amino acid is introduced as a solution in DMF in presence of DIEA as base, followed by capping of the resin with MeOH. The resin is washed with DMF, prior to removal of Fmoc group by treatment with a 20% solution of piperidine in DMF, followed by washings in the same solvent. Subsequent residues are incorporated in DMF employing DIPCDI and Oxyma as coupling reagents. After verification of reaction completion using ninhydrin test, the solvent is filtrated away by suction. After this, the resin is washed with DMF and the Fmoc-deprotection step is repeated as abovementioned or in 2% DBU in DMF. Coupling-deprotection cycles are repeated for introduction of the remaining amino acids, with increasing Fmoc removal treatment times from the 6th residue. Oxyma (0.5M) is introduced in the cocktail whenever Asp residue is already incorporated into the growing peptide chain.
The peptidyl resin is washed and dried using DMF, DCM and diethyl ether and finally left under vacuum overnight to get rid of solvent traces. Cleavage of the crude product from the solid support and removal of the side-chain protecting groups is achieved by acidolysis using TFA and 5% water as scavenger. The peptide is precipitated out of the acidic mixture with Et2O, followed by washes with the same solvent and drying under reduced pressure. Crude trifluoroacetate salt peptide is lyophilized and analyzed by analytical HPLC-MS, affording peptide purities over 80%.
Synthesized peptides are further evaluated for its capacity to inhibit DPPH as a reference for their antioxidant potential. […] ID.

[3] = system: Caucasian hair shafts; assay: Ex vivo protection evaluation in Caucasian hair shafts (protein carbonylation); parameters: species or system human; details: positive control NAC, concentration not given; stress (PM + UV-A); basal control 100, stress 214
Description: Carbonylated proteins in hair shafts or HFDPC are labeled in situ using a fluorescent probe functionalized to specifically bind carbonyl groups in proteins [Baraibar, M A, et al., “Proteomic quantification and identification of carbonylated proteins upon oxidative stress and during cellular aging” J. Proteomics (2013) 30; 92:63-70]. Specific fluorescent signals (relative fluorescent units) per experimental group (n=6) are collected and analyzed with ImageJ™ software. A relative value (%) of Carbonylation Level per experimental group is obtained with respect to basal control.
hair shafts (donor; light brown) are treated with hydrolysate of Example 3 at 1% (v/v) (active ingredient solubilized in ultra-pure water, leave on (no washing steps)) for 30 minutes with gently movement at room temperature. After this time, hair shafts are dried at room temperature and are stressed with Particle Matters at 150 μg/cm^2 (from European Reference Material; Ref. CZ100) followed by UV-A irradiation (LED source, emission peak at 365 nm, 84 J/cm^2) for 6 h.
After stress exposure Proteins Carbonylation is determined as described in Example 5.

Compound: O=C(O)c1ccccc1 [Sodium Benzoate]
- % DPPH INHIBITION, t = 0 [1]: 0%

Compound: VDAQPEEQQR [SEQ ID No. 3]
- DPPH inhibition (%) [2]: 100%
- Ability to inhibit DPPH / antioxidant potential (in words) [2]: most antioxidant peptides

Compound: EYTGDAAGR [SEQ ID No. 5]
- DPPH inhibition (%) [2]: 83.9%
- Ability to inhibit DPPH / antioxidant potential (in words) [2]: most antioxidant peptides

Compound: VAEQEQEQAKRQ [SEQ ID No. 1]
- DPPH inhibition (%) [2]: 78.7%
- Ability to inhibit DPPH / antioxidant potential (in words) [2]: most antioxidant peptides

Compound: CC(=O)N[C@@H](CS)C(=O)O [NAC, N-acetyl-cysteine]
- Carbonylation level % (MEAN ± SEM) [3]: 166.8 ± 5.41 %

Compound: LPQQEQGHDR [SEQ ID No. 2]
- DPPH inhibition (%) [2]: 77.5%
- Ability to inhibit DPPH / antioxidant potential (in words) [2]: most antioxidant peptides

Compound: GINAENNQRN [SEQ ID No. 4]
- DPPH inhibition (%) [2]: 96.3%
- Ability to inhibit DPPH / antioxidant potential (in words) [2]: most antioxidant peptides
